Measurements reported in ChEMBL document CHEMBL1201862, “PubChem BioAssay data set” (2004).
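Test compounds were applied to cells in 96-well plates for 48 hours at 5 doses. GI50 is the concentration that inhibits growth by half.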 The source made the active and inactive calls. Rule as the data show it: active = GI50 up to about 1.1 µM and inactive = higher.

Legend:
Assay in all cases: DTP human tumour cell line panel, 48 h
A549 = tested on: A549
ACHN = tested on: ACHN
CAKI-1 = tested on: CAKI-1
COLO 205 = tested on: COLO 205
IGROV-1 = tested on: IGROV-1
KM12 = tested on: KM12
M14 = tested on: M14
Malme-3M = tested on: Malme-3M
NCI-H226 = tested on: NCI-H226
SK-OV-3 = tested on: SK-OV-3
SNB-19 = tested on: SNB-19
SW-620 = tested on: SW-620
TK-10 = tested on: TK-10
UACC-62 = tested on: UACC-62
UO-31 = tested on: UO-31
HCT-116 = tested on: HCT-116

Measured: GI50

NC(=O)c1csc(C2OC(COP(=O)(O)CP(=O)(O)OCC3OC(n4cnc5c(N)ncnc54)C(O)C3O)C(O)C2O)n1 (configuration not stated)
inactive: A549 > 100 µM | ACHN > 100 µM | CAKI-1 > 100 µM | COLO 205 91.2 µM | IGROV-1 > 100 µM | KM12 > 100 µM | M14 > 100 µM | Malme-3M > 100 µM | NCI-H226 > 100 µM | SK-OV-3 > 100 µM | SNB-19 > 100 µM | SW-620 > 100 µM | TK-10 > 100 µM | UACC-62 > 100 µM | UO-31 > 100 µM

OCCN(CCO)c1cccc(N(CCO)CCO)n1
inactive: A549 > 100 µM | ACHN > 100 µM | CAKI-1 > 100 µM | COLO 205 > 100 µM | HCT-116 > 100 µM | KM12 > 100 µM | M14 > 100 µM | SK-OV-3 > 100 µM | SNB-19 > 100 µM | SW-620 > 100 µM | TK-10 > 100 µM | UACC-62 58.2 µM | UO-31 > 100 µM

CCCCN(CCCC)CC(C(=O)Nc1ccccc1)/C(C)=N\NC(=O)c1ccncc1 (configuration not stated)
inactive: A549 > 100 µM | ACHN > 100 µM | CAKI-1 > 100 µM | COLO 205 > 100 µM | HCT-116 92 µM | IGROV-1 > 100 µM | KM12 > 100 µM | M14 > 100 µM | Malme-3M > 100 µM | NCI-H226 > 100 µM | SK-OV-3 > 100 µM | SNB-19 > 100 µM | SW-620 > 100 µM | TK-10 > 100 µM | UACC-62 59.3 µM | UO-31 28.5 µM

NS(=O)(=O)c1cc2c(cc1Cl)NC(C(=O)c1cc(=O)c3ccc(O)cc3o1)=NS2(=O)=O
inactive: A549 > 100 µM | ACHN > 100 µM | CAKI-1 > 100 µM | COLO 205 > 100 µM | HCT-116 > 100 µM | IGROV-1 > 100 µM | KM12 > 100 µM | M14 > 100 µM | Malme-3M > 100 µM | NCI-H226 > 100 µM | SK-OV-3 > 100 µM | SNB-19 > 100 µM | SW-620 > 100 µM | TK-10 > 100 µM | UACC-62 > 100 µM | UO-31 > 100 µM

CC(=O)N/C(=C\c1ccc(Cc2nc3c([nH]2)C(=O)c2ccccc2C3=O)cc1)c1nc2c([nH]1)C(=O)c1ccccc1C2=O
inactive: A549 > 100 µM | ACHN > 100 µM | CAKI-1 > 100 µM | COLO 205 > 100 µM | HCT-116 > 100 µM | IGROV-1 > 100 µM | KM12 > 100 µM | M14 > 100 µM | Malme-3M > 100 µM | NCI-H226 > 100 µM | SK-OV-3 > 100 µM | SNB-19 > 100 µM | SW-620 > 100 µM | TK-10 78.9 µM | UO-31 > 100 µM

CC12CCCCC1C(=O)C2(Cl)Cl (configuration not stated)
inactive: A549 3.18 µM | ACHN 2.51 µM | CAKI-1 2.15 µM | HCT-116 1.69 µM | IGROV-1 2.96 µM | KM12 1.79 µM | M14 2.03 µM | Malme-3M 1.4 µM | SNB-19 3.31 µM | SW-620 2.05 µM | TK-10 3.85 µM | UACC-62 2.2 µM | UO-31 2.18 µM

CCn1c(=O)nc2n(-c3ccccc3)c3ccccc3nc-2c1=O
inactive: A549 17.2 µM | ACHN 4.21 µM | CAKI-1 12.5 µM | COLO 205 3.85 µM | IGROV-1 22.4 µM | KM12 31.3 µM | M14 13.9 µM | Malme-3M 16.3 µM | NCI-H226 20 µM | SK-OV-3 > 100 µM | SNB-19 23 µM | SW-620 14.4 µM | TK-10 > 100 µM | UACC-62 12.7 µM | UO-31 35.7 µM

CCOC(=O)c1cc2c(cn1)[nH]c1cccc(N)c12
inactive: A549 > 100 µM | ACHN > 100 µM | CAKI-1 > 100 µM | COLO 205 > 100 µM | HCT-116 > 100 µM | IGROV-1 > 100 µM | KM12 > 100 µM | M14 > 100 µM | Malme-3M > 100 µM | SNB-19 > 100 µM | SW-620 > 100 µM | TK-10 > 100 µM | UACC-62 > 100 µM | UO-31 > 100 µM

Cn1ncc2cc3c(Nc4ccc(Cl)cc4)cccc3nc21
inactive: A549 18.2 µM | ACHN 15 µM | CAKI-1 15.5 µM | COLO 205 13.7 µM | IGROV-1 15.3 µM | KM12 17.3 µM | M14 18.8 µM | Malme-3M 23 µM | SK-OV-3 61.2 µM | SNB-19 37.8 µM | SW-620 13.9 µM | TK-10 26.9 µM | UACC-62 15.1 µM | UO-31 7.4 µM

CC(C)(C)C(=O)Cc1cc2c(cc1C(=O)O)S(=O)(=O)NC(C(C)(C)C)=C2
inactive: A549 > 100 µM | ACHN > 100 µM | CAKI-1 > 100 µM | COLO 205 > 100 µM | HCT-116 > 100 µM | KM12 > 100 µM | M14 > 100 µM | Malme-3M > 100 µM | NCI-H226 > 100 µM | SK-OV-3 > 100 µM | SNB-19 > 100 µM | SW-620 > 100 µM | TK-10 > 100 µM | UACC-62 > 100 µM | UO-31 > 100 µM

O=c1[nH]c2cccccc-2c1-c1nc2ccccc2[nH]1
inactive: A549 25 µM | ACHN 14.1 µM | CAKI-1 20.4 µM | COLO 205 > 100 µM | HCT-116 19.8 µM | IGROV-1 32.7 µM | KM12 4.82 µM | M14 44.3 µM | Malme-3M 21.3 µM | NCI-H226 11.1 µM | SK-OV-3 20.1 µM | SNB-19 21.2 µM | SW-620 69.5 µM | TK-10 92.7 µM | UACC-62 17.9 µM | UO-31 31.1 µM

COc1ccccc1C(N)c1ccccc1 (configuration not stated)
inactive: A549 > 100 µM | ACHN > 100 µM | COLO 205 > 100 µM | HCT-116 > 100 µM | IGROV-1 > 100 µM | KM12 > 100 µM | M14 > 100 µM | Malme-3M > 100 µM | NCI-H226 > 100 µM | SK-OV-3 > 100 µM | SNB-19 > 100 µM | SW-620 > 100 µM | TK-10 > 100 µM | UACC-62 > 100 µM | UO-31 > 100 µM

O=C(O)C12C=CC(C1)c1ccccc12 (configuration not stated)
inactive: A549 > 100 µM | ACHN > 100 µM | CAKI-1 > 100 µM | COLO 205 > 100 µM | HCT-116 > 100 µM | IGROV-1 > 100 µM | M14 > 100 µM | Malme-3M > 100 µM | NCI-H226 > 100 µM | SK-OV-3 > 100 µM | SNB-19 > 100 µM | SW-620 > 100 µM | TK-10 > 100 µM | UACC-62 > 100 µM | UO-31 > 100 µM

Cc1ccc(NC(=O)CCC(=O)C2CC(=O)CC/C2=N\NC(=O)c2cc3ccccc3cc2O)cc1C (configuration not stated)
inactive: A549 25.1 µM | ACHN 18.9 µM | CAKI-1 19 µM | COLO 205 16.9 µM | HCT-116 19.6 µM | IGROV-1 15.5 µM | KM12 31.8 µM | M14 25.8 µM | Malme-3M 30.4 µM | NCI-H226 23 µM | SK-OV-3 67.9 µM | SNB-19 40.7 µM | SW-620 25.6 µM | TK-10 51.9 µM | UACC-62 10.2 µM | UO-31 4.13 µM

COc1ccc(Cc2nccc3cc(OC)c(OC)cc23)cc1
inactive: A549 > 100 µM | ACHN 43.3 µM | CAKI-1 33 µM | COLO 205 > 100 µM | HCT-116 57.4 µM | IGROV-1 95.1 µM | KM12 81.5 µM | M14 > 100 µM | Malme-3M > 100 µM | SK-OV-3 > 100 µM | SNB-19 54.6 µM | SW-620 > 100 µM | TK-10 > 100 µM | UACC-62 42.2 µM | UO-31 16.9 µM

CCCCn1c(-c2ccccc2)cs/c1=N\N=C1C=C(C(C)(C)C)C(=O)C(C(C)(C)C)=C1
inactive: A549 > 100 µM | ACHN > 100 µM | CAKI-1 > 100 µM | COLO 205 > 100 µM | HCT-116 > 100 µM | IGROV-1 > 100 µM | M14 > 100 µM | Malme-3M > 100 µM | NCI-H226 > 100 µM | SNB-19 > 100 µM | SW-620 > 100 µM | TK-10 > 100 µM | UACC-62 > 100 µM | UO-31 > 100 µM

COC(=O)c1cc(C)n(NC(=O)OC(C)(C)C)c1C
inactive: A549 > 100 µM | ACHN > 100 µM | CAKI-1 > 100 µM | COLO 205 > 100 µM | HCT-116 > 100 µM | IGROV-1 > 100 µM | KM12 > 100 µM | M14 > 100 µM | Malme-3M > 100 µM | NCI-H226 > 100 µM | SK-OV-3 > 100 µM | SNB-19 > 100 µM | SW-620 > 100 µM | TK-10 > 100 µM | UACC-62 > 100 µM | UO-31 > 100 µM

CCCCCCCCCCCCCCCC[N+](C)(C)Cc1ccc(C[N+](C)(C)CCCCCCCCCCCCCCCC)cc1
inactive: A549 2.09 µM | ACHN 3.71 µM | CAKI-1 10.1 µM | COLO 205 2.7 µM | HCT-116 2.59 µM | IGROV-1 2.43 µM | KM12 2.56 µM | M14 2.89 µM | SK-OV-3 2.62 µM | SNB-19 2.52 µM | SW-620 2.99 µM | TK-10 17.8 µM | UACC-62 4.13 µM | UO-31 25.8 µM
